Read-outs that look alike come from different tables or passages of the source.

For orientation: EC50 means the concentration giving half of the maximal effect.

The assay concerns AP-1. The experiment in a line: Cellular transrepression assay (AP-1 luciferase reporter in A549 cells, PMA activated). The format is cell-based. The conditions noted are these: 10 ng/ml PMA; for EC50: read-out: AP-1 (EC50, nM) (measured in cellular transrepression assay); for Emax: read-out: AP-1 Max % inhibition (measured in cellular transrepression assay). The protocol:
Cellular Transrepressional Assay
To measure the ability of test molecules to inhibit AP-1 induced transcriptional activity we utilized an A549 cell which was stably transfected with a plasmid containing 7×AP-1 DNA binding sites (pAP-1-Luc plasmid, Stratagene Co. La Jolla, Calif.) followed by the gene for luciferase. Cells were activated with 10 ng/ml of phorbol myristic acid (PMA) plus or minus test molecules for 7 hours. After 7 hours a luciferase reagent was added to measure luciferase enzymatic activity in the cell. After a 10 minute incubation of luciferase reagent with cells, luminescence was measured in a TopCount luminescence counter. Repression of AP-1 activity was calculated as the percentage decrease in the signal induced by PMA alone. Test molecules were analyzed in the concentration range from 0.1 nM to 40 μM. EC50s were determined by using standard curve fitting methods such as Excel fit (Microsoft Co.). An EC50 is the test molecule concentration at which there is a 50% repression of the maximal inhibition of transcription, i.e. a 50% reduction of AP-1 activity.

Consider `CN(C)C(=O)c1ccc(-c2ccc3c(n2)Oc2nc(Cl)ccc2C3C(C)(C)C(=O)Nc2nncs2)cc1` (stereo not shown) [Example 54, 4-(8-chloro-5-(1,1-dimethyl-2-oxo-2-(1,3,4-thiadiazol-2-ylamino)ethyl)-5H-pyrido[3′,2′:5,6]pyrano[2,3-b]pyridin-2-yl)-N,N-dimethylbenzamide], for which, for the setting “7 h”, the EC50 worked out at 33.8 nM and the Emax is 59.2%.

With `CC(C)Sc1ccc2c(n1)Oc1nc(-c3ccc(C(=O)N(C)C)cc3)ccc1C2C(C)(C)C(=O)Nc1nncs1` (stereo not shown) [Example 55], for the setting “7 h”, the EC50 worked out at 354 nM and the Emax amounted to 30.5%.

Turning to `Cc1nnc(NC(=O)C(C)(C)C2c3ccc(Cl)nc3Oc3nc(-c4ccc(C(=O)N(C)C)cc4)ccc32)s1` (stereo not shown) [Example 56], for the setting “7 h”, the EC50 amounted to 70.6 nM and the Emax is 45.9%.

`Cc1nsc(NC(=O)C(C)(C)C2c3ccc(Cl)nc3Oc3nc(-c4ccc(C(=O)N(C)C)cc4)ccc32)n1` (stereo not shown) [Example 57]: under “7 h”, the EC50 was found to be 68.5 nM and the Emax came to 31.4%.

Consider `CCN(C)C(=O)c1ccc(-c2ccc3c(n2)Oc2nc(Cl)ccc2C3C(C)(C)C(=O)Nc2nnc(C)s2)cc1` (stereo not shown) [Example 58, 4-(8-chloro-5-(1,1-dimethyl-2-((5-methyl-1,3,4-thiadiazol-2-yl)amino)-2-oxoethyl)-5H-pyrido[3′,2′:5,6]pyrano[2,3-b]pyridin-2-yl)-N-ethyl-N-methylbenzamide], for which, under “7 h”, the EC50 was 58.1 nM and the Emax amounted to 57.7%.

Take `CCN(C)C(=O)c1ccc(-c2ccc3c(n2)Oc2nc(Cl)ccc2C3C(C)(C)C(=O)Nc2nncs2)cc1` (stereo not shown) [Example 59]: where the note is “7 h”, the 50% effective concentration (EC50) turned out to be 15.8 nM and the Emax came out at 62.3%.

As to `CC(C)(C(=O)Nc1nncs1)C1c2ccc(Cl)nc2Oc2nc(-c3ccc(C(=O)N4CCOCC4)cc3)ccc21` (stereo not shown) [Example 60], under “7 h”, the EC50 turned out to be 10.7 nM and the Emax came out at 57.5%.

Take `Cc1nnc(NC(=O)C(C)(C)C2c3ccc(Cl)nc3Oc3nc(-c4ccc(C(=O)N5CCOCC5)cc4)ccc32)s1` (stereo not shown) [Example 61]: under “7 h”, the EC50 turned out to be 47.5 nM and the Emax was found to be 49.8%.

Consider `CN(C)C(=O)c1ccc(-c2ccc3c(n2)Oc2nc(Cl)ccc2C3C(C)(C)C(=O)Nc2nnc(C(=O)NC3CC3)s2)cc1` (stereo not shown) [Example 62], for which, for the setting “7 h”, the EC50 came out at 352 nM and the Emax stood at 59.5%.

With `Cc1nnc(NC(=O)C(C)(C)C2c3ccc(Cl)nc3Oc3nc(-c4ccc(C(=O)N5CCOCC5)cc4)ccc32)s1` (stereo not shown) [Example 63], for the setting “7 hours”, the “AP-1 Max % inhibition (measured in cellular transrepression assay)” value is recorded as 54.57% and the EC50 was 87 nM.

As for `CN(C)C(=O)c1ccc(-c2ccc3c(n2)Oc2nc(C#N)ccc2C3C(C)(C)C(=O)Nc2nncs2)cc1` (stereo not shown) [Example 66, 4-(8-cyano-5-(1,1-dimethyl-2-oxo-2-(1,3,4-thiadiazol-2-ylamino)ethyl)-5H-pyrido[3′,2′:5,6]pyrano[2,3-b]pyridin-2-yl)-N,N-dimethylbenzamide], where the note is “7 h”, the 50% effective concentration (EC50) was 335 nM and the Emax turned out to be 38.9%.

Take `CN(C)C(=O)c1ccc(-c2ccc3c(n2)Oc2nc(N(C)C)ccc2C3C(C)(C)C(=O)Nc2nncs2)cc1` (stereo not shown) [Example 67, 4-(8-(dimethylamino)-5-(1,1-dimethyl-2-oxo-2-(1,3,4-thiadiazol-2-ylamino)ethyl)-5H-pyrido[3′,2′:5,6]pyrano[2,3-b]pyridin-2-yl)-N,N-dimethylbenzamide]: for the setting “7 h”, the EC50 turned out to be 53 nM and the Emax is 57.9%.

As to `Cc1nnc(NC(=O)C(C)(C)C2c3ccc(-c4ccc(C(=O)N(C)C)cc4)nc3Oc3nc(N(C)C)ccc32)s1` (stereo not shown) [Example 68, 4-(8-(dimethylamino)-5-(1,1-dimethyl-2-((5-methyl-1,3,4-thiadiazol-2-yl)amino)-2-oxoethyl)-5H-pyrido[3′,2′:5,6]pyrano[2,3-b]pyridin-2-yl)-N,N-dimethylbenzamide], under “7 h”, the EC50 stood at 95.3 nM and the Emax was 46.3%.

On to `CCN(C)C(=O)c1ccc(-c2ccc3c(n2)Oc2nc(N(C)C)ccc2C3C(C)(C)C(=O)Nc2nnc(C)s2)cc1` (stereo not shown) [Example 71], for which, for the setting “7 h”, the EC50 was found to be 67.2 nM and the Emax came to 48.6%.

Consider `CN(C)c1ccc2c(n1)Oc1nc(-c3ccc(C(=O)N4CCOCC4)cc3)ccc1C2C(C)(C)C(=O)Nc1nncs1` (stereo not shown) [Example 72], for which, under “7 h”, the EC50 stood at 18 nM and the Emax turned out to be 48.7%.

For `CN(C)C(=O)c1ccc(-c2ccc3c(n2)Oc2nc(N(C)C)ccc2C3C(C)(C)C(=O)Nc2nncs2)cc1F` (stereo not shown) [Example 73, 4-(8-(dimethylamino)-5-(1,1-dimethyl-2-oxo-2-(1,3,4-thiadiazol-2-ylamino)ethyl)-5H-pyrido[3′,2′:5,6]pyrano[2,3-b]pyridin-2-yl)-2-fluoro-N,N-dimethylbenzamide], under “7 h”, the EC50 was determined as 194 nM and the Emax stood at 43.4%.

As to `CCC(=O)c1ccc(-c2ccc3c(n2)Oc2nc(C)ccc2[C@@H]3C(C)(C)C(=O)Nc2nncs2)cc1` [Example 76], under “7 h”, the EC50 turned out to be 119 nM and the Emax came out at 48.5%.

`CCN(C)C(=O)c1ccc(-c2ccc3c(n2)Oc2nc(C)ccc2[C@@H]3C(C)(C)C(=O)Nc2nnc(C(=O)NC(C)C)s2)cc1` [Example 86]: under “7 h”, the EC50 was determined as 183 nM and the Emax worked out at 61.6%.

For `CCN(C)C(=O)c1ccc(-c2ccc3c(n2)Oc2nc(C)ccc2[C@@H]3C(C)(C)C(=O)Nc2nnc(C(=O)NCC(F)(F)F)s2)cc1` [Example 87], for the setting “7 h”, the EC50 turned out to be 574 nM and the Emax came out at 51.7%.

Take `Cc1ccc2c(n1)Oc1nc(-c3ccc(C(=O)N4CCOCC4)cc3)ccc1[C@H]2C(C)(C)C(=O)Nc1nnc(C(=O)NC2CCOCC2)s1` [Example 88, 5-((2-methyl-2-((5S)-2-methyl-8-(4-(4-morpholinylcarbonyl)phenyl)-5H-pyrano[2,3-b:6,5-b′]dipyridin-5-yl)propanoyl)amino)-N-(tetrahydro-2H-pyran-4-yl)-1,3,4-thiadiazole-2-carboxamide]: for the setting “7 h”, the EC50 amounted to 56.9 nM and the Emax is 32.9%.

For the compound `Cc1ccc2c(n1)Oc1nc(-c3ccc(C(C)(C)O)cc3)ccc1[C@H]2C(C)(C)C(=O)Nc1nncs1` [Example 89], under “7 h”, the EC50 turned out to be 21 nM and the Emax is 46.9%.

As to `Cc1ccc2c(n1)Oc1nc(-c3ccc(C(=O)N4CCOCC4)cc3)ccc1[C@H]2C(C)(C)C(=O)Nc1nnc(C2CC2)s1` [Example 93, N-(5-cyclopropyl-1,3,4-thiadiazol-2-yl)-2-methyl-2-((5 S)-2-methyl-8-(4-(4-morpholinylcarbonyl)phenyl)-5H-pyrido[3′,2′:5,6]pyrano[2,3-b]pyridin-5-yl)propanamide], where the note is “7 h”, the EC50 was 167 nM and the Emax was 44.3%.

Regarding `Cc1ccc2c(n1)Oc1nc(-c3ccc(C(=O)N(C)C)cc3)ccc1[C@H]2C(C)(C)C(=O)Nc1nnn(C)n1` [Example 94], under “7 h”, the EC50 was 790 nM and the Emax was determined as 35.9%.
